Assay results: PubChem BioAssay (NCI)
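Growth conditions: 96-well plates. Treatment: test compound, 48 hours, 5 concentrations. Analysis: linear interpolation between bracketing concentrations; unreached endpoints set to highest concentration. GI50: concentration for 50% inhibition of growth. TGI marks complete inhibition of growth.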

Experiments:
Assay in all cases: NCI anticancer screen, dose series, 48 h
IGROV1 ovarian = tested on: IGROV1 ovarian
ACHN renal = tested on: ACHN renal
K-562 leukemia = tested on: K-562 leukemia
M14 melanoma = tested on: M14 melanoma
MALME-3M melanoma = tested on: MALME-3M melanoma
NCI-H522 lung = tested on: NCI-H522 lung
HT29 colon = tested on: HT29 colon
SF-539 CNS = tested on: SF-539 CNS
SK-MEL-2 melanoma = tested on: SK-MEL-2 melanoma
COLO 205 colon = tested on: COLO 205 colon

SMILES	TGI (IGROV1 ovarian) [µM]	TGI (ACHN renal) [µM]	TGI (K-562 leukemia) [µM]	TGI (M14 melanoma) [µM]	TGI (MALME-3M melanoma) [µM]	TGI (NCI-H522 lung) [µM]	TGI (HT29 colon) [µM]	TGI (SF-539 CNS) [µM]	TGI (SK-MEL-2 melanoma) [µM]	TGI (COLO 205 colon) [µM]	GI50 (IGROV1 ovarian) [µM]	GI50 (ACHN renal) [µM]	GI50 (M14 melanoma) [µM]	GI50 (MALME-3M melanoma) [µM]	GI50 (NCI-H522 lung) [µM]	GI50 (COLO 205 colon) [µM]	GI50 (HT29 colon) [µM]	GI50 (SF-539 CNS) [µM]	GI50 (K-562 leukemia) [µM]	GI50 (SK-MEL-2 melanoma) [µM]
Cc1ccc(S(=O)(=O)OC(C=O)C(O)C(O)COC(c2ccccc2)(c2ccccc2)c2ccccc2)cc1 (stereo not given)	29.5	28.7	35	30.1	33.7	26.3	24.9	30.8	29.9	–	–	–	–	–	–	–	–	–	–	–
NC(=NCc1ccccc1)N/N=C\c1ccnc2ccccc12	–	32	24.2	17.5	27	–	25.4	29.2	22.1	3.21	–	–	–	–	–	–	–	–	–	–
c1ccc(CNc2nc(Nc3ccc(-c4nc5ccccc5[nH]4)cc3)c3cn[nH]c3n2)cc1	6.99	6.5	–	3.81	3.8	5.68	5.57	5.19	–	3.72	2.49	2.29	1.72	1.81	2.24	1.78	2.09	2	–	–
CC/C(=C(/CC)c1ccc(OP(=O)([O-])[O-])cc1)c1ccc(OP(=O)([O-])[O-])cc1.N.N.N.N.[Pt+4].[Pt+4]	53.6	10.9	> 100	6.87	6.02	–	90.3	–	> 100	–	5.36	2.08	1.63	2.13	–	–	16.9	3.51	4.63	13.1
CC1C2CC(CC2=O)C1(C)C (stereo not given)	> 100	> 100	> 100	> 100	> 100	> 100	> 100	> 100	–	> 100	–	–	–	–	–	–	–	–	–	–
CCN1N=CSC12C(=O)N(c1ccccc1)C(=O)N2c1ccccc1 (stereo not given)	> 100	> 100	> 100	> 100	> 100	> 100	> 100	> 100	–	> 100	–	–	–	–	–	–	–	–	–	–
COC(=O)[C@@]12C3=NO[C@]1(C(=O)OC)C(O[Si](C)(C)C(C)(C)C)C1OC(C)(C)OC1[C@@H]2[C@@H](OCc1ccccc1)CC3 (stereo not given in full)	> 100	–	> 100	> 100	–	–	> 100	> 100	> 100	> 100	–	–	–	–	–	–	–	–	–	–
C=C1CCC2C3(C)COC(c4cccc(Cl)c4)OC3CCC2(C)C1/C=C/C1=CCOC1=O (stereo not given)	> 100	> 100	> 100	> 100	> 100	> 100	> 100	> 100	> 100	–	> 100	> 100	> 100	> 100	2.92	–	5.32	48.5	2.8	> 100
COC(=O)CC(CC(=O)C(=O)OC)C(=O)OC (stereo not given)	> 100	> 100	> 100	> 100	> 100	–	> 100	> 100	> 100	> 100	–	–	–	–	–	–	–	–	–	–
Oc1ccc(-c2nc(-c3ccc(F)cc3)c(-c3ccncc3)[nH]2)cc1	29.4	> 100	> 100	20.3	9.13	–	> 100	> 100	–	40.5	4.3	3.97	4.02	2.45	–	4.77	3.78	25.7	15.9	–
CNS(=O)(=O)NN(C)S(=O)(=O)c1ccc(C)cc1	> 100	> 100	–	> 100	> 100	> 100	> 100	> 100	> 100	> 100	–	–	–	–	–	–	–	–	–	–
O=C1/C(=C/c2ccccc2Cl)COc2ccccc21	35.6	34.6	29.7	–	29.7	30.5	45.1	31	29	40.1	–	–	–	–	–	–	–	–	–	–
CC1(C)CC(C2CC(C)(C)CC(C)(C)[C@H]2O)[C@@H](O)C(C)(C)C1 (stereo not given in full)	> 100	> 100	> 100	> 100	> 100	> 100	> 100	> 100	–	> 100	–	–	–	–	–	–	–	–	–	–
Cc1cc(N(CCC#N)CCC#N)ccc1N=Nc1ccc([N+](=O)[O-])cc1	–	> 100	> 100	> 100	> 100	> 100	> 100	> 100	> 100	> 100	–	–	–	–	–	–	–	–	–	–
CC(=O)NNc1nc(C)c(C(/C=C/c2ccc3c(c2)OCO3)=N/NC(=O)c2ccncc2)s1	> 100	> 100	> 100	> 100	> 100	> 100	> 100	> 100	> 100	–	–	–	–	–	–	–	–	–	–	–
COc1ccc(C(=O)Nc2ccccc2)cc1[N+](=O)[O-]	> 100	–	> 100	> 100	> 100	> 100	> 100	> 100	> 100	> 100	–	–	–	–	–	–	–	–	–	–
Cn1cc(-c2nonc2-c2cn(C)c3ccc(Br)cc23)c2ccccc21	> 100	> 100	> 100	> 100	> 100	> 100	> 100	6.13	> 100	–	5.13	4.29	3.93	4.86	3.01	–	3.26	2.19	1.08	3.36
C[C@@H](Oc1cc(-n2cnc3ccc(OCC4CCN(C)CC4)cc32)sc1C(N)=O)c1ccccc1C(F)(F)F	4.41	4.52	3.31	1.25	6.97	0.236	2.63	1.08	–	0.401	0.217	0.801	0.0879	2.79	0.0472	0.0752	0.0721	0.144	0.0832	–
COc1cc(C2c3cc4c(cc3[C@@H](OCCN)[C@H]3COC(=O)C23)OCO4)cc(OC)c1O (stereo not given in full)	4.55	2.01	–	3.34	1.59	0.596	2.69	0.345	0.883	6.51	–	–	–	–	–	–	–	–	–	–
